Legend:
[1] = biological target: T1, rat TRPV1 (Rattus norvegicus, UniProt O35433); details: for decrease in agonism on replacing or removing the 3-methoxy group of compound 1: comparator not given
[2] = cited from earlier work
[3] = tested on: TRPV1; details: cited from earlier work
[4] = biological target: T1, rat TRPV1; assay: biochemical; type: binding
[5] = tested on: transient receptor potential vanilloid 1 (TRPV1) channel; details: cited from earlier work

T1 sequence (O35433 whole entry): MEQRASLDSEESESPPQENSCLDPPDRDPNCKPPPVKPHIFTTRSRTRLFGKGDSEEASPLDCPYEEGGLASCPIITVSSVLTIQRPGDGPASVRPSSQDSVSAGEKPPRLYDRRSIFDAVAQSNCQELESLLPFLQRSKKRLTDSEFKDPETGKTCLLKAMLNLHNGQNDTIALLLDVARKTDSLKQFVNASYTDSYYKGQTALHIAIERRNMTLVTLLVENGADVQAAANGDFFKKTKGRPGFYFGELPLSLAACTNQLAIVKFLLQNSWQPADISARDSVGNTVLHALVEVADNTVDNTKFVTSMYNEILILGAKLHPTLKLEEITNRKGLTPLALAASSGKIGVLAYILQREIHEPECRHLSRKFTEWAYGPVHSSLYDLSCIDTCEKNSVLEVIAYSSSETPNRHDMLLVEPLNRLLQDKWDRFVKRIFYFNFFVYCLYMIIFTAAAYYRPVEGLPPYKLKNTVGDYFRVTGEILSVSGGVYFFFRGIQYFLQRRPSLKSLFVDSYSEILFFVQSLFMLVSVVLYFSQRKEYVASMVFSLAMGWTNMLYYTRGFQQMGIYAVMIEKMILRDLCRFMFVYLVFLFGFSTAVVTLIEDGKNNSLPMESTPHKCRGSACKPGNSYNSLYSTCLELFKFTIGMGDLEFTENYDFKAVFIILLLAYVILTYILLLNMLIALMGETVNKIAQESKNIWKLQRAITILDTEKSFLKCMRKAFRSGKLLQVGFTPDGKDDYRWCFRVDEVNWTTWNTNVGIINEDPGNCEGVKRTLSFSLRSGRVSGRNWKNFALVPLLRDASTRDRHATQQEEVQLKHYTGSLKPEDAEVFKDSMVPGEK

## C=C(C)[C@@]12C[C@@H](C)[C@@]34OC(Cc5ccccc5)(O[C@@H]1[C@@H]3C=C(COC(=O)Cc1ccc(NS(C)(=O)=O)c(F)c1)C[C@]1(O)C(=O)C(C)=C[C@@H]41)O2 [Compound 2, 3-Fluoro-4-(methylsulfonylamino) analogue]
[1]
  decrease in agonism on replacing or removing the 3-methoxy group of compound 1: 9 fold

## C=C(C)[C@]12C[C@@H](C)[C@@]34O[C@](Cc5ccccc5)(O[C@@H]1[C@@H]3C=C(COC(=O)Cc1ccc(O)cc1)C[C@]1(O)C(=O)C(C)=C[C@@H]41)O2 [tinyatoxin]
[2]
  loss of biological potency compared to RTX: 6 fold
[3]
  decrease in binding potency compared to RTX: 3 fold

## C=C(C)[C@@]12C[C@@H](C)[C@@]34OC(Cc5ccccc5)(O[C@@H]1[C@@H]3C=C(COC(=O)Cc1ccc(F)cc1F)C[C@]1(O)C(=O)C(C)=C[C@@H]41)O2 [Compound 8, 2,4-Difluoro analogue]
[1]; compared to RTX
  relative agonism compared to RTX: 0.15

## C=C(C)[C@@]12C[C@@H](C)[C@@]34OC(Cc5ccccc5)(O[C@@H]1[C@@H]3C=C(CNC(=O)Cc1ccc(NS(C)(=O)=O)cc1)C[C@]1(O)C(=O)C(C)=C[C@@H]41)O2 [Compound 14, Amide analogue]
[4]; compared to compound 3
  drop in binding, amide versus ester compound 3: 50 fold
[1]; compared to compound 3
  drop in agonism, amide versus ester compound 3: 210 fold

## C=C(C)[C@@]12C[C@@H](C)[C@@]34OC(Cc5ccccc5)(O[C@@H]1[C@@H]3C=C(COC(=O)Cc1ccc(NS(C)(=O)=O)c(OC)c1)C[C@]1(O)C(=O)C(C)=C[C@@H]41)O2 [Compound 1, 3-Methoxy-4-(methylsulfonylamino) analogue]
[4]
  reduction in binding affinity compared to RTX: 5 fold
[1]
  enhancement of functional activity (agonism) compared to RTX: 2.5 fold

## C=C(C)[C@@]12C[C@@H](C)[C@@]34OC(Cc5ccccc5)(O[C@@H]1[C@@H]3C=C(COC(=O)Cc1ccccc1F)C[C@]1(O)C(=O)C(C)=C[C@@H]41)O2 [Compound 4, 2-Fluoro analogue]
[4]
  Ki: 0.73 nM

## C=C(C)[C@]12C[C@@H](C)[C@@]34O[C@](Cc5ccccc5)(O[C@@H]1[C@@H]3C=C(COC(=O)Cc1ccc(O)c(OC)c1)C[C@]1(O)C(=O)C(C)=C[C@@H]41)O2 [RTX, Resiniferatoxin]
[5]
  greater potency than the prototypic agonist capsaicin: 10^3- to 10^4 fold

## C=C(C)[C@@]12C[C@@H](C)[C@@]34OC(Cc5ccccc5)(O[C@@H]1[C@@H]3C=C(COC(=O)Cc1cc(F)ccc1F)C[C@]1(O)C(=O)C(C)=C[C@@H]41)O2 [Compound 9, 2,5-Difluoro analogue]
[4]; compared to RTX
  relative affinity compared to RTX: 0.1

## C=C(C)[C@@]12C[C@@H](C)[C@@]34OC(Cc5ccccc5)(O[C@@H]1[C@@H]3C=C(COC(=O)Cc1ccc(NS(C)(=O)=O)cc1)C[C@]1(O)C(=O)C(C)=C[C@@H]41)O2 [Compound 3, 4-(Methylsulfonylamino) analogue]
[1]
  decrease in agonism on replacing or removing the 3-methoxy group of compound 1: 7 fold
